Test: Solubility of MGBG salts
Type: physicochemical
Text: It is necessary to administer MGBG in a salt form to assure solubility of drug in the administration of fluid such as 5% (w/v) dextrose in water. […] Available MGBG-salt complexes include but are not limited to the dihydrochloride (NSC-32946) and the diacetate (NSC-30689).

Which “solubility relative to dihydrochloride or diacetate salts” value does the source give for `CC(C=NNC(=N)N)=NNC(=N)N` here?
The value was “not as soluble as the dihydrochloride or diacetate salts”.

Source: patent US4520031A, “Method for reducing toxic effects of methyl-glyoxal bis-guanylhydrazone” (priority 1982, dated 1985)
